The subject of one series is HS-68 and Hela cells. The series can be described thus: Toxicity of CADY variants, MTT cell viability assay (Table 1). In kind it is cell-based. The conditions noted are these: for toxicity: at concentration of 100 µM. The procedure: The toxicity of CADY peptides has been investigated on different cell lines. Cells were incubated in the presence of increasing concentrations of CADY (from 0.1 µM to 1 mM) for 12 hrs and cell viability was estimated using MTT assay.
(In general: Formazan colour is commonly taken as a measure of viable cells.)

Series [1] deals with short 17-residues peptide (cargo used with CADY-2). The series can be described thus: steady state Trp fluorescence quenching; fixed CADY (0.1 uM) titrated with cargo peptide; quadratic fit.
The mark [2] stands for this setting: free peptide, MTT, read-out: free EC50.

Read-outs that look alike come from different tables or passages of the source. Numbered stars: 1 amine (or outer) side, 2 acyl side, 3 side chain; on linkers, the order of the positions; unused ones are H or OH. Ends that are not written are not given here. Peptide text beside a SMILES is read from it. Cysteamide = C(CS[*:3])N[*:1]

“WEAALAEALAEALAEHLAEALAEALEALAA [GALA, reference compound]”: in the series on HS-68 and Hela cells, the toxicity was more than 70%.
The term EC50 denotes the concentration needed to bring the measured effect to its halfway point. With `CC(=O)NCC(=O)N[C@@H](CC(C)C)C(=O)N[C@@H](Cc1c[nH]c2ccccc12)C(=O)N[C@@H](CCCNC(=N)N)C(=O)N[C@@H](C)C(=O)N[C@@H](CC(C)C)C(=O)N[C@@H](Cc1c[nH]c2ccccc12)C(=O)N[C@@H](CCCNC(=N)N)C(=O)N[C@@H](C)C(=O)N[C@@H](CC(C)C)C(=O)N[C@@H](Cc1c[nH]c2ccccc12)C(=O)N[C@@H](CCCNC(=N)N)C(=O)N[C@@H](CO)C(=O)N[C@@H](CC(C)C)C(=O)N[C@@H](Cc1c[nH]c2ccccc12)C(=O)N[C@@H](CCCCN)C(=O)N[C@@H](CC(C)C)C(=O)N[C@@H](CCCCN)C(=O)N[C@@H](Cc1c[nH]c2ccccc12)C(=O)N[C@@H](CCCCN)C(=O)N[C@H](C(=O)NCCS)C(C)C` [CADY-2] (HELM PEPTIDE1{[ac].G.L.W.R.A.L.W.R.A.L.W.R.S.L.W.K.L.K.W.K.V.[SCCN[*:1]]}$$$$V2.0), the half-maximal effective concentration (EC50) with HS-68 and Hela cells (setting [2]) amounted to 230 µM.
Still for that read-out and setting: under `CC(C)C[C@H](NC(=O)CN)C(=O)N[C@@H](Cc1c[nH]c2ccccc12)C(=O)N[C@@H](CCCNC(=N)N)C(=O)N[C@@H](C)C(=O)N[C@@H](CC(C)C)C(=O)N[C@@H](Cc1c[nH]c2ccccc12)C(=O)N[C@@H](CCCNC(=N)N)C(=O)NCC(=O)N[C@@H](CC(C)C)C(=O)N[C@@H](CCCNC(=N)N)C(=O)N[C@@H](CO)C(=O)N[C@@H](CC(C)C)C(=O)N[C@@H](Cc1c[nH]c2ccccc12)C(=O)N[C@@H](CCCCN)C(=O)N[C@@H](CC(C)C)C(=O)N[C@@H](CCCCN)C(=O)N[C@@H](CCCNC(=N)N)C(=O)N[C@@H](CCCCN)C(=O)N[C@H](C(=O)NCCS)C(C)C` [CADY-1d] (HELM PEPTIDE1{G.L.W.R.A.L.W.R.G.L.R.S.L.W.K.L.K.R.K.V.[SCCN[*:1]]}$$$$V2.0) stands 500 µM; under `CC(C)C[C@H](NC(=O)CN)C(=O)N[C@@H](Cc1c[nH]c2ccccc12)C(=O)N[C@@H](CCCNC(=N)N)C(=O)N[C@@H](C)C(=O)N[C@@H](CC(C)C)C(=O)N[C@@H](Cc1c[nH]c2ccccc12)C(=O)N[C@@H](CCCNC(=N)N)C(=O)N[C@@H](C)C(=O)N[C@@H](CC(C)C)C(=O)N[C@@H](CCCNC(=N)N)C(=O)N[C@@H](CO)C(=O)N[C@@H](CC(C)C)C(=O)N[C@@H](Cc1c[nH]c2ccccc12)C(=O)N[C@@H](CCCCN)C(=O)N[C@@H](CC(C)C)C(=O)N[C@@H](CCCCN)C(=O)N[C@@H](CCCNC(=N)N)C(=O)N[C@@H](CCCCN)C(=O)N[C@H](C(=O)NCCS)C(C)C` [CADY-1c] (HELM PEPTIDE1{G.L.W.R.A.L.W.R.A.L.R.S.L.W.K.L.K.R.K.V.[SCCN[*:1]]}$$$$V2.0), 450 µM.
`CC(C)C[C@H](NC(=O)CN)C(=O)N[C@@H](Cc1c[nH]c2ccccc12)C(=O)N[C@@H](CCCNC(=N)N)C(=O)N[C@@H](C)C(=O)N[C@@H](CC(C)C)C(=O)N[C@@H](Cc1c[nH]c2ccccc12)C(=O)N[C@@H](CCCNC(=N)N)C(=O)N[C@@H](C)C(=O)N[C@@H](CC(C)C)C(=O)N[C@@H](Cc1c[nH]c2ccccc12)C(=O)N[C@@H](CCCNC(=N)N)C(=O)N[C@@H](CO)C(=O)N[C@@H](CC(C)C)C(=O)N[C@@H](Cc1c[nH]c2ccccc12)C(=O)N[C@@H](CCCCN)C(=O)N[C@@H](CC(C)C)C(=O)N[C@@H](CCCCN)C(=O)N[C@@H](CCCNC(=N)N)C(=O)N[C@@H](CCCCN)C(=O)N[C@H](C(=O)NCCS)C(C)C` [CADY-1b] (HELM PEPTIDE1{G.L.W.R.A.L.W.R.A.L.W.R.S.L.W.K.L.K.R.K.V.[SCCN[*:1]]}$$$$V2.0): the EC50 in the series with HS-68 and Hela cells (free peptide, MTT, listed as CADY-2d, read-out: free EC50) amounted to 380 µM; in the series on HS-68 and Hela cells (setting [2]) it was 500 µM.
Take `CC(C)C[C@H](NC(=O)CN)C(=O)N[C@@H](Cc1c[nH]c2ccccc12)C(=O)N[C@@H](CCCNC(=N)N)C(=O)N[C@@H](C)C(=O)N[C@@H](CC(C)C)C(=O)N[C@@H](Cc1c[nH]c2ccccc12)C(=O)N[C@@H](CCCNC(=N)N)C(=O)N[C@@H](C)C(=O)N[C@@H](CC(C)C)C(=O)N[C@@H](Cc1c[nH]c2ccccc12)C(=O)N[C@@H](CCCNC(=N)N)C(=O)N[C@@H](CO)C(=O)N[C@@H](CC(C)C)C(=O)N[C@@H](Cc1c[nH]c2ccccc12)C(=O)N[C@@H](CCCCN)C(=O)N[C@@H](CO)C(=O)N[C@@H](CCCCN)C(=O)N[C@@H](CCCNC(=N)N)C(=O)N[C@@H](CCCCN)C(=O)N[C@H](C(=O)NCCS)C(C)C` [CADY-2b] (HELM PEPTIDE1{G.L.W.R.A.L.W.R.A.L.W.R.S.L.W.K.S.K.R.K.V.[SCCN[*:1]]}$$$$V2.0): the EC50 in the series on HS-68 and Hela cells (setting [2]) worked out at 280 µM.
Molecule “WEAKLAKALAKALAKHLAKALAKALKACEA [KALA, reference compound]” gave a toxicity with HS-68 and Hela cells of more than 70%.
Consider `CC(C)C[C@H](NC(=O)CN)C(=O)N[C@@H](Cc1c[nH]c2ccccc12)C(=O)N[C@@H](CCCNC(=N)N)C(=O)N[C@@H](C)C(=O)N[C@@H](CC(C)C)C(=O)N[C@@H](Cc1c[nH]c2ccccc12)C(=O)N[C@@H](CCCNC(=N)N)C(=O)N[C@@H](C)C(=O)N[C@@H](CC(C)C)C(=O)N[C@@H](Cc1c[nH]c2ccccc12)C(=O)N[C@@H](CCCNC(=N)N)C(=O)N[C@@H](CO)C(=O)N[C@@H](CC(C)C)C(=O)N[C@@H](Cc1c[nH]c2ccccc12)C(=O)N[C@@H](CCCCN)C(=O)N[C@@H](CCCCN)C(=O)N[C@@H](CCCCN)C(=O)N[C@@H](CCCNC(=N)N)C(=O)N[C@@H](CCCCN)C(=O)N[C@H](C(=O)NCCS)C(C)C` [CADY-2c] (HELM PEPTIDE1{G.L.W.R.A.L.W.R.A.L.W.R.S.L.W.K.K.K.R.K.V.[SCCN[*:1]]}$$$$V2.0), for which, in the series with HS-68 and Hela cells (setting [2]), the EC50 is 340 µM.
Still for that read-out and setting: the value for `CC(C)C[C@H](NC(=O)CN)C(=O)N[C@@H](Cc1c[nH]c2ccccc12)C(=O)N[C@@H](CCCNC(=N)N)C(=O)N[C@@H](C)C(=O)N[C@@H](CC(C)C)C(=O)N[C@@H](Cc1c[nH]c2ccccc12)C(=O)N[C@@H](CCCNC(=N)N)C(=O)NCC(=O)N[C@@H](CC(C)C)C(=O)N[C@@H](CCCNC(=N)N)C(=O)N[C@@H](CO)C(=O)N[C@@H](CC(C)C)C(=O)N[C@@H](Cc1c[nH]c2ccccc12)C(=O)N[C@@H](CCCCN)C(=O)N[C@@H](CCCCN)C(=O)N[C@@H](CCCCN)C(=O)N[C@@H](CCCNC(=N)N)C(=O)N[C@@H](CCCCN)C(=O)N[C@H](C(=O)NCCS)C(C)C` [CADY-1e] (HELM PEPTIDE1{G.L.W.R.A.L.W.R.G.L.R.S.L.W.K.K.K.R.K.V.[SCCN[*:1]]}$$$$V2.0) was 340 µM.
As for `CC(=O)NCC(=O)N[C@@H](CC(C)C)C(=O)N[C@@H](Cc1c[nH]c2ccccc12)C(=O)N[C@@H](CCCNC(=N)N)C(=O)N[C@@H](C)C(=O)N[C@@H](CC(C)C)C(=O)N[C@@H](Cc1c[nH]c2ccccc12)C(=O)N[C@@H](CCCNC(=N)N)C(=O)N[C@@H](CC(C)C)C(=O)N[C@@H](CC(C)C)C(=O)N[C@@H](CCCNC(=N)N)C(=O)N[C@@H](CO)C(=O)N[C@@H](CC(C)C)C(=O)N[C@@H](Cc1c[nH]c2ccccc12)C(=O)N[C@@H](CCCNC(=N)N)C(=O)N[C@@H](CC(C)C)C(=O)N[C@@H](CC(C)C)C(=O)N[C@@H](Cc1c[nH]c2ccccc12)C(=O)N[C@@H](CCCCN)C(=O)N[C@@H](C)C(=O)NCCSS[C@H]1CC[C@@]2(C)C(=CC[C@H]3[C@@H]4CC[C@H]([C@H](C)CCCC(C)C)[C@@]4(C)CC[C@@H]32)C1` [CADY-S2] (HELM PEPTIDE1{[ac].G.L.W.R.A.L.W.R.L.L.R.S.L.W.R.L.L.W.K.A.[CC(C)CCC[C@@H](C)[C@H]1CC[C@H]2[C@@H]3CC=C4C[C@@H](SSCCN[*:1])CC[C@]4(C)[C@H]3CC[C@]12C]}$$$$V2.0; N-terminus assumed), in the series with HS-68 and Hela cells (12 h), the EC50 came out at 250 µM.
Regarding `CC(C)C[C@H](NC(=O)CN)C(=O)N[C@@H](Cc1c[nH]c2ccccc12)C(=O)N[C@@H](CCCNC(=N)N)C(=O)N[C@@H](C)C(=O)N[C@@H](CC(C)C)C(=O)N[C@@H](Cc1c[nH]c2ccccc12)C(=O)N[C@@H](CCCNC(=N)N)C(=O)N[C@@H](CC(C)C)C(=O)N[C@@H](CC(C)C)C(=O)N[C@@H](CCCNC(=N)N)C(=O)N[C@@H](CO)C(=O)N[C@@H](CC(C)C)C(=O)N[C@@H](Cc1c[nH]c2ccccc12)C(=O)N[C@@H](CCCNC(=N)N)C(=O)N[C@@H](CC(C)C)C(=O)N[C@@H](CC(C)C)C(=O)N[C@@H](Cc1c[nH]c2ccccc12)C(=O)N[C@@H](CO)C(=O)N[C@@H](CCC(N)=O)C(=O)N1CCC[C@H]1C(=O)N[C@@H](CCCCN)C(=O)N[C@@H](CCCCN)C(=O)N[C@@H](CCCCN)C(=O)N[C@@H](CCCNC(=N)N)C(=O)N[C@@H](CCCCN)C(=O)N[C@H](C(=O)NCCS)C(C)C` [CADY-2e] (HELM PEPTIDE1{G.L.W.R.A.L.W.R.L.L.R.S.L.W.R.L.L.W.S.Q.P.K.K.K.R.K.V.[SCCN[*:1]]}$$$$V2.0), the EC50 with HS-68 and Hela cells (setting [2]) is 430 µM.
As usually defined, the Kd is a measure of binding affinity in units of concentration. As for Ac-GLWRALWRALWRSLWKLKWKV-Cysteamide [CADY-2 (Ac-…-Cya)], in series [1], the Kd was determined as 0.019 µM and the ratio at saturation (cargo/CADY molar ratio) came out at 0.05.

The values above are taken from patent publication EP1795539B1, “Cell penetrating peptides for intracellular delivery of molecules” (Centre National de la Recherche Scientifique, priority 2005, dated 2007).
